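Exposure lasted 48 hours, with cells grown in 96-well plates and compounds tested at five concentrations. TGI: concentration producing complete growth inhibition.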

What all share (assay): NCI anticancer screen, dose series, 48 h
The test system of assay [1] is NCI/ADR-RES ovarian.
The test system of assay [2] is SK-OV-3 ovarian.
Assay [3] deals with SK-MEL-5 melanoma.
In assay [4] the test system is KM12 colon.
The test system of assay [5] is SN12C renal.
In assay [6] the test system is A549 NSCLC.
For assay [7], the system named is CCRF-CEM leukemia.
Assay [8] deals with HCT-15 colon.
Assay [9] concerns OVCAR-5 ovarian.
Assay [10] concerns 786-0 renal.
In assay [11] the test system is TK-10 renal.
Assay [12] has as its system HT29 colon.
Assay [13] deals with SK-MEL-28 melanoma.
Assay [14] deals with SF-295 CNS.
Assay [15] relates to DU-145 prostate.
Assay [16] deals with HOP-62 NSCLC.

For the molecule `Clc1ccccc1/C=C/c1nsc(/C=C/c2ccccc2Cl)n1`, the TGI in [1] was over 100 µM; in [2], over 100 µM; in assay [3], over 100 µM; in [4], over 100 µM; in assay [5], 51.5 µM; in [6], over 100 µM. For the same molecule, the TGI in assay [7] was over 100 µM; in [8], over 100 µM; in assay [9] it was over 100 µM; in [10] it was 39.1 µM; in assay [11] it was 78.1 µM; in assay [12] it was over 100 µM. Also, the TGI in [13], in assay [14], in assay [15] and in assay [16] was over 100 µM throughout.

For the molecule `Cc1ccc(/C=C2\CN(C)CC3C(c4ccc(C)cc4)=C(C#N)C(=O)NC23)cc1` (stereo not drawn), the TGI in assay [1], in [2], in assay [3], in assay [4], in assay [5] and in assay [6] was over 50 µM each time. In addition, the TGI in assay [7], in assay [8], in assay [9], in assay [10], in assay [11] and in assay [12] was over 50 µM each time. Further, the TGI in assay [13], in assay [14], in assay [15] and in assay [16] was over 50 µM in each case.

Take `O/N=c1/ccn(O)c2ccccc12`: the TGI in assay [1] was determined as 4.7 µM; in assay [2] it was 3.26 µM; in [3] it was 2.77 µM; in assay [4] it was 5.25 µM; in assay [5], 5.7 µM; in [6], 6.74 µM. Further, the TGI in assay [7] turned out to be 3.34 µM; in assay [8], 5.21 µM; in assay [9], 14.7 µM; in assay [10], 10.3 µM; in assay [11], 5.87 µM; in assay [12], 4.24 µM. The TGI in [13] is 3.16 µM; in [14] it was 2.9 µM; in [15], 7.76 µM; in assay [16], 9.43 µM.

Consider `COc1ncnc2c1cnn2Cc1cn(COCC(O)CO)nn1` (stereo not drawn), for which the TGI in assay [1], in [2], in assay [3], in assay [4], in assay [5] and in assay [6] was over 100 µM each time. The TGI in [7], in [8], in assay [9], in assay [10], in assay [11] and in assay [12] was over 100 µM in each case. Also, the TGI in assay [13], in [14], in assay [15] and in assay [16] was over 100 µM in each case.

For `O=C(NCCN1C(=O)CN=C(c2ccc(Cl)cc2)c2cc(Cl)ccc21)OCc1ccccc1`, the TGI in assay [1] was 35.7 µM; in assay [2] it was over 100 µM; in assay [3] it was 30.2 µM; in [4] it was 32.4 µM; in assay [5], 28.7 µM; in assay [6], 32.7 µM. For the same molecule, the TGI worked out at 63.1 µM in assay [7]; 44.6 µM in [8]; 49.7 µM in assay [9]; 28.9 µM in [10]; 37.3 µM in assay [11]; 31.8 µM in assay [12]. Moreover, the TGI is over 100 µM in [13], 29.4 µM in assay [14], 37.7 µM in [15] and 38.2 µM in assay [16].

With `COc1cc2c(cc1OC)C1Cc3ccccc3CCN1CC2` (stereo not drawn), the TGI in assay [1], in assay [2], in assay [3], in [4], in [5] and in assay [6] was over 100 µM in each case. Further, the TGI in assay [7], in assay [8], in [9], in assay [10], in assay [11] and in [12] was over 100 µM in each case. For the same molecule, the TGI in assay [13], in [14], in assay [15] and in assay [16] was over 100 µM each time.

As to `Cc1c2c(c(C)n1-c1ccccc1)C(=O)N(CCSC(=N)N)C2=O`, the TGI in assay [1], in [2], in assay [3], in [4], in assay [5] and in [6] was over 100 µM each time. For the same molecule, the TGI in assay [7], in assay [8], in assay [9], in assay [10], in assay [11] and in assay [12] was over 100 µM in each case. Also, the TGI in [13], in assay [14], in assay [15] and in assay [16] was over 100 µM each time.

As to `CC(C)(C)c1cc(C(=O)/C=C/c2ccc(O)c(O)c2O)cc(C(C)(C)C)c1O`, the TGI turned out to be 14.8 µM in [1]; 53.7 µM in assay [2]; 19 µM in assay [3]; 11.6 µM in assay [4]; 13.8 µM in assay [5]; 40.9 µM in assay [6]. The TGI worked out at 7.84 µM in assay [7]; 14.8 µM in assay [8]; 39.1 µM in assay [9]; 28.8 µM in assay [10]; 18.3 µM in [11]; 27.7 µM in assay [12]. Besides, the TGI in assay [13] stood at 28.1 µM; in assay [14], 27.8 µM; in assay [15] it was 35.6 µM; in assay [16], 27.8 µM.
